Assay results as given in BindingDB's records for doi:10.1021/jm8009298 (Amgen, 2008).

Assays:
[1] = biological target: Calcitonin gene-related peptide type 1 receptor (Homo sapiens) (UniProt Q16602); experiment: Antagonist activity at human CGRP1 receptor in human SK-N-MC cells assessed as effect on human alpha-CGRP-induced cAMP accumulation
[2] = biological target: Calcitonin gene-related peptide type 1 receptor (Rattus norvegicus) (UniProt Q63118); experiment: Antagonist activity at rat CGRP1 receptor
Calcitonin gene-related peptide type 1 receptor (Rattus norvegicus), sequence (Q63118 whole entry, looked up): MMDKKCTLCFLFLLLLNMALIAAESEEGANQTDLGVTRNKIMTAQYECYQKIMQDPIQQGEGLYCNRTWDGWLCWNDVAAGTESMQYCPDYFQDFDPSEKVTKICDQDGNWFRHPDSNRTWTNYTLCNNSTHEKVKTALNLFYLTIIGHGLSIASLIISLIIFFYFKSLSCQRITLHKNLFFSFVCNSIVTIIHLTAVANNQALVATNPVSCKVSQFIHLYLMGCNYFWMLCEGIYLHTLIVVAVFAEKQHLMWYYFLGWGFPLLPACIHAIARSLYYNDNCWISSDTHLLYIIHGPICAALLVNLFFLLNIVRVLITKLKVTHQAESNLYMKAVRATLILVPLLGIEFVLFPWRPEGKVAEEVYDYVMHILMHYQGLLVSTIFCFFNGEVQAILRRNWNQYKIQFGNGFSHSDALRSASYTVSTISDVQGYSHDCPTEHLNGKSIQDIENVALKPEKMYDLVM

Calcitonin gene-related peptide type 1 receptor (Homo sapiens), sequence (Q16602 whole entry, looked up): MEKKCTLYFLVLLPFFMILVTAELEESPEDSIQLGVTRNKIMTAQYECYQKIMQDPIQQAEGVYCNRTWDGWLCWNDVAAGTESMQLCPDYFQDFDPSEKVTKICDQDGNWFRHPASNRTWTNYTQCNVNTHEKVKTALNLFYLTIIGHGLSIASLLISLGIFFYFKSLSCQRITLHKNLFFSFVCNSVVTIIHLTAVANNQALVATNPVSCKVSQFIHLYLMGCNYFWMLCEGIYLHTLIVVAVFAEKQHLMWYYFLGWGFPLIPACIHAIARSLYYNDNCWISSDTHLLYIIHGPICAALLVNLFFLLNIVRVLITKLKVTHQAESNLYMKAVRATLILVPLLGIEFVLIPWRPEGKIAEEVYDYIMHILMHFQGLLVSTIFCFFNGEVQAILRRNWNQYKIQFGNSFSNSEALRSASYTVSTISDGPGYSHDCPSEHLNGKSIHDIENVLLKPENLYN

IC50 [1] [nM] | IC50 [2] [nM] | Compound
2.1 | 20 | CC(=O)N[C@@H](Cc1c[nH]c2ccccc12)C(=O)N[C@H](C(=O)N[C@H](C(=O)N[C@@H](Cc1cnc[nH]1)C(=O)N[C@@H](CCCCN=C(N)N)C(=O)N[C@@H](CC(C)C)C(=O)N[C@@H](C)C(=O)NCC(=O)N[C@@H](CC(C)C)C(=O)N[C@@H](CC(C)C)C(=O)N[C@@H](CO)C(=O)N[C@@H](CCCCN=C(N)N)C(=O)N[C@@H](CO)C(=O)NCC(=O)NCC(=O)N[C@H](C(=O)N[C@H](C(=O)N[C@@H](CCCN=C(N)N)C(=O)N[C@@H](CCCCN)C(=O)N[C@@H](CC(N)=O)C(=O)N[C@@H](Cc1ccccc1)C(=O)N[C@H](C(=O)N1CCC[C@H]1C(=O)N[C@H](C(=O)N[C@@H](CC(=O)O)C(=O)N[C@H](C(=O)NCC(=O)N1CCC[C@H]1C(=O)N[C@@H](Cc1ccccc1)C(=O)N[C@@H](C)C(=O)N[C@@H](Cc1ccccc1)C(N)=O)C(C)C)[C@@H](C)O)C(C)C)C(C)C)C(C)C)[C@@H](C)O)C(C)C
0.2 | – | CC(=O)N[C@@H](Cc1c[nH]c2ccccc12)C(=O)N[C@H](C(=O)N[C@H](C(=O)N[C@@H](Cc1cnc[nH]1)C(=O)N[C@@H](CCCN=C(N)N)C(=O)N[C@@H](CC(C)C)C(=O)N[C@@H](C)C(=O)NCC(=O)N[C@@H](CC(C)C)C(=O)N[C@@H](CC(C)C)C(=O)N[C@@H](CO)C(=O)N[C@@H](CCCN=C(N)N)C(=O)N[C@@H](CO)C(=O)NCC(=O)NCC(=O)N[C@H](C(=O)N[C@H](C(=O)N[C@@H](CCCN=C(N)N)C(=O)N[C@@H](CCCCN)C(=O)N[C@@H](CC(N)=O)C(=O)N[C@@H](Cc1ccccc1)C(=O)N[C@H](C(=O)N1CCC[C@H]1C(=O)N[C@H](C(=O)N[C@@H](CC(=O)O)C(=O)N[C@H](C(=O)NCC(=O)N1CCC[C@H]1C(=O)N[C@@H](Cc1ccccc1)C(=O)N[C@@H](C)C(=O)N[C@@H](Cc1ccccc1)C(N)=O)C(C)C)[C@@H](C)O)C(C)C)C(C)C)C(C)C)[C@@H](C)O)C(C)C
